Measured values from patent US10189820.

Conditions: amide bond; 22-membered ring; HATU/DIEA; NMP; 68.9 mM; 140.0 °C; 2 steps

Substance “8-ethyl-10,18,30-trimethyl-7,20-dioxo-7,8,11,12,13,14,15,20,21,28,29,30,31,32-tetradecahydro-benzo[4,5]imidazo[2,1-b]benzo[4,5]imidazo[1,2-i]dipyrazolo[5,1-m:4′,3′-t][1,3,6,9,11,14]hexaazacyclodocosine-3,24-dicarboxamide” has a ring closure, yield after HPLC of 4.56%.
